In assay [1] the test system is high-density MM cells (H929). As to the kind of experiment: Cleaved caspase 3 apoptosis assay, sensitization to doxorubicin.
Assay [2] deals with PBMC. As to the kind of experiment: CT-Glo cytotoxicity assay, PBMC. Particulars: 72-h CT-Glo, average ± SD. The class given is cell-based. On the procedure: The molecules with the highest docking scores were assayed for IC50 values. Cultures were tested for cytotoxicity using the CellTiter-Glo assay (CT-Glo cytotoxicity assay; Promega, Madison, Wis.), a luminescence-based homogeneous method for determining the number of viable cells in culture based on quantitation of the ATP present, which signals the presence of metabolically active cells (Corsino, et al., A novel class of cyclin-dependent kinase inhibitors identified by molecular docking act through a unique mechanism. J Biol Chem 2009; 284: 29945-55; Homsi, et al., Src activation in melanoma and Src inhibitors as therapeutic agents in melanoma. Melanoma Res 2009; 19: 167-75). All cells were assayed at log-phase growth conditions. Luminescence was measured with a Synergy 4 microplate reader (Bio-Tek Instruments, Inc., Winooski, Vt.). IC50 values were determined using a sigmoidal equilibrium model regression using XLfit version 5.2 (ID Business Solutions Ltd., Surrey, UK) (Corsino, et al., A novel class of cyclin-dependent kinase inhibitors identified by molecular docking act through a unique mechanism. J Biol Chem 2009; 284: 29945-55).

The target in assay [3] is T1, CRM1-topo IIα complexes (Homo sapiens, UniProt P11388).
T1 construct: CRM1-topo IIα complexes were isolated from cells by immunoprecipitation; endogenous in cells
T1 sequence (P11388 whole entry, one chain of several): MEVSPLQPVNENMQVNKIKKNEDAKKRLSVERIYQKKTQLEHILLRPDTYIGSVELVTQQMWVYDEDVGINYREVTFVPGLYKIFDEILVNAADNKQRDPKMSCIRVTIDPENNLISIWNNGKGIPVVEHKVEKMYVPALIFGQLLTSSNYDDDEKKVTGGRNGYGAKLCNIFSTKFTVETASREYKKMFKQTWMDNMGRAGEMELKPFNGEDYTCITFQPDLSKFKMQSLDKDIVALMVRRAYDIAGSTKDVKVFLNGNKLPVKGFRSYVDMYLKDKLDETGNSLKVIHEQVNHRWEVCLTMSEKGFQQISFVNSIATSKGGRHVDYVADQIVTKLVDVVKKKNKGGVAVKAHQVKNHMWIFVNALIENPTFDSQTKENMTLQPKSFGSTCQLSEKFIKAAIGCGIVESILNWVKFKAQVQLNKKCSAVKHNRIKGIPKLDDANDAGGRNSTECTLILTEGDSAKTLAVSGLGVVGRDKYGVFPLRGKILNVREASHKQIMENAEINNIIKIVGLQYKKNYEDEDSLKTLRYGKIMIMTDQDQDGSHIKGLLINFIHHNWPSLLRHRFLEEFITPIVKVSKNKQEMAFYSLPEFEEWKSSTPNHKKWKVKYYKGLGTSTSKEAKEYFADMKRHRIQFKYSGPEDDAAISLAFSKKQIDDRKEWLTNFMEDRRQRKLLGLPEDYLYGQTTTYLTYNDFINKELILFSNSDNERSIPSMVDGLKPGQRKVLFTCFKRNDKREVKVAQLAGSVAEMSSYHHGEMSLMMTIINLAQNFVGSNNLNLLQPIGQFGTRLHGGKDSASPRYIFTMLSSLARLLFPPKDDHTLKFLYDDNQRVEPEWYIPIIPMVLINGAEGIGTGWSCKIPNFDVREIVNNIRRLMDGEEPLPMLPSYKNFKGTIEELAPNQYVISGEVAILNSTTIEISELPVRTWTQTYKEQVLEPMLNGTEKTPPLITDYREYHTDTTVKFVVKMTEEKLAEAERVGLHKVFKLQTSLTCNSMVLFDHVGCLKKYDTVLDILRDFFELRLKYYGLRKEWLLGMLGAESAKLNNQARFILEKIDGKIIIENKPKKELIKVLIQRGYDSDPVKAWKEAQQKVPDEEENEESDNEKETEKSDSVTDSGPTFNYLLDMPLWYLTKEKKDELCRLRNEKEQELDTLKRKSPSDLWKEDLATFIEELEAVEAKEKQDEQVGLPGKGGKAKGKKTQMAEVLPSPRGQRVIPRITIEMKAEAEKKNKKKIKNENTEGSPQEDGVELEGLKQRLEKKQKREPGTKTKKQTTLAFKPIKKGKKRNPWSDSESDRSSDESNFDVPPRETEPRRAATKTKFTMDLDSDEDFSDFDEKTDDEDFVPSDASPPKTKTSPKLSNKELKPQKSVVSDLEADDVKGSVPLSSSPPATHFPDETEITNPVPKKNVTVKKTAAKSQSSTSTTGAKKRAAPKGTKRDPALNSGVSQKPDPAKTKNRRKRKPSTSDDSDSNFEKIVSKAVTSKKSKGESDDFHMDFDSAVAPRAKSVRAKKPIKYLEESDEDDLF
As to the kind of experiment: Co-immunoprecipitation of CRM1 with topo IIα. The class given is cell-based. As to the method: Human myeloma cells were placed at plateau concentrations (4×10^6 cells/ml), and NES inhibitors were added at 25 μM for 20 hours. Cells were collected, washed in PBS, and fractionated by a method adapted from Li et al. (Li Y, Bor Y C, Misawa Y, Xue Y, Rekosh D, Hammarskjold M L. An intron with a constitutive transport element is retained in a Tap messenger RNA. Nature 2006; 443: 234-7). Separated fractions containing nuclei or precipitated cytosol were dissolved in 2% SDS buffer and assayed by SDS-PAGE Western blot analysis. Blots were probed with an anti-topo IIα Kis1 antibody (Millipore Corp.). Lead compounds were also tested to determine if nuclear export inhibition was specific to topo IIα protein. Cells grown at log-phase concentrations were also fractionated. […], CRM1-topo IIα complexes were isolated from cells by immunoprecipitation using a combination of both protein A and protein G magnetic beads according to the manufacturer's protocol (Miltenyi Biotec, Cologne, Germany). Co-immunoprecipitation was performed with 2 μg of anti-CRM1 antibody (Santa Cruz Biotechnology, Inc., Santa Cruz, Calif.). Immunoprecipitation samples were separated by SDS-PAGE, transferred to nitrocellulose membranes, and probed with anti-topo IIα Kis1 antibody (Millipore, Corp., Billerica, Mass.) and anti-mouse horseradish peroxidase secondary antibody.

The structures appear in SMILES notation.

Regarding `O=C1c2ccccc2C(=O)C1C(=O)C(c1ccccc1)c1ccccc1` [NCI-9138, 2-(diphenylacetyl)-1H-indene-1,3(2H)-dione], the “Sensitization of high-density MM cells to doxorubicin / synergism” value in assay [1] (25 μM NES inhibitor, doxorubicin 2 μM) is listed as “synergized with the topo II inhibitor doxorubicin”. Further, the “Fold-Increased sensitization to dox” value in assay [1] (dox/drug (dox 2 μM) divided by dox alone) was 4.13 ± 1.83 fold. In addition, the IC50 in assay [2] is 32.5 µM. Further, the “Co-immunoprecipitation of CRM1 with topo IIα” value in assay [3] (50 μM for 20 hours (FIG. 12 legend)) is on record as “blocked”. In assay [3] (MM cells, 25 μM for 20 hours), the “Binding of topo IIα to CRM1 (co-immunoprecipitation)” value is recorded as “prevented from binding to CRM1”.

Broadly, the IC50 is the point on the concentration scale where inhibition reaches its midpoint.
